{"source": "patent US20210177879A1", "about": "“VITAMIN D RECEPTOR AGONIST” (Guanghzou University of Chinese Medicine, priority 2018, published 2021)", "system": "vitamin D receptor", "assay": "Expression of vitamin D receptor in colon tissues, Experiment 2 (Western blot, immunohistochemistry)", "assay_type": "in vivo, Balb/c mice", "conditions": "compared with the blank group; VD3 0.2 mg/kg, four compounds 2 mg/kg", "procedure": "Experimental method: 70 Balb/c mice of 6-8 weeks were purchased from the Experimental Animal Center in Guangzhou University of Chinese Medicine, weighed about 18-22 g, and subjected to adaptive feeding for 10 days. Modeling was divided into three stages. In the first stage, except for the normal group of animals being given saline injection, each of the other animals were intraperitoneally injected with a carcinogen AOM (10 mg/kg), and given free access to 2% DSS water from the next day for 7 days, and then given access to replaced regular drinking water for 14 days. In the second stage, the animals were given free access to 2% DSS water for 10 days, and then given access to replaced regular drinking water for 14 days. In the third stage, the animals were given free access to 2% DSS water for 10 days, and then given access to replaced regular drinking water for 11 days. The normal group was given access to regular drinking water throughout the experiment. The diet, water drinking and body weights of the animals were recorded daily and DAI scores were made, and the animals were killed and harvested at the 10th week. In this experiment, the animals were divided into groups and administrated on the first day of a modeling period of the second stage, where a total of 7 groups were set, each group including 10 animals. The first group was a blank control group (control) that was given access to drinking water by gavage; the second group was a model group (model), in which a total of 10 animals were given access to drinking water by gavage; the third group was a vitamin D3 positive administration control group (VD3, 0.2 mg/kg); and the fourth to seventh groups were given monotropein, desacetyl asperulosidic acid, asperuloside, and asperulosidic acid (groups labeled as: Mo, As, Aa, Da), respectively at a given dose of 2 mg/kg. Dosing was conducted once a day until the end of the experiment. At the end of the experiment, the animals were anesthetized and harvested, and the colon tissue was taken, measured with a ruler for the length, and measured with a vernier caliper for the thickness. The effects of monotropein, desacetyl asperulosidic acid, asperuloside and asperulosidic acid on expression of the vitamin D receptor were detected.", "data": [{"smiles": "C=C1CC[C@H](O)C/C1=C/C=C1\\CCC[C@]2(C)[C@@H]([C@H](C)CCCC(C)C)CC[C@@H]12", "note": "[vitamin D3, reference compound]", "values": [{"measurement": "expression of the vitamin D receptor in the colon tissues (Western blot and immunohistochemistry)", "result": "promote expression enhancement"}]}]}
